This note sets out measurements from PubChem BioAssay AID256 (DTP/NCI, 2004).

This test concerns CD2F1 mice, L1210 leukemia ip, survival T/C. As to the kind of experiment: NCI In Vivo Anticancer Drug Screen. Data for tumor model L1210 Leukemia (intraperitoneal) in CD2F1 (CDF1) mice. Conditions: higher = longer survival. A digest of the protocol: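 In this screen, transplantable tumors were grown in mice given either the compound or its vehicle. Results were expressed as the treated measurement relative to the control measurement.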

The mark [1] stands for this setting: endpoint: mean survival time, dose: 100.0 mg/kg/injection, schedule: Q04DX002 (ip), vehicle: saline with Tween-80.
[2] abbreviates: endpoint: mean survival time, dose: 200.0 mg/kg/injection, schedule: Q04DX002 (ip), vehicle: saline with Tween-80.
[3] abbreviates: endpoint: mean survival time, dose: 100.0 mg/kg/injection, schedule: Q01DX001 (ip), vehicle: saline with Tween-80.
Where [4] appears, read: endpoint: mean survival time, dose: 100.0 mg/kg/injection, schedule: Q01DX009 (ip), vehicle: saline with Tween-80.
[5] abbreviates: endpoint: mean survival time, dose: 100.0 mg/kg/injection, schedule: Q04DX003 (ip), vehicle: saline with Tween-80.
Where [6] appears, read: endpoint: mean survival time, dose: 200.0 mg/kg/injection, schedule: Q01DX001 (ip), vehicle: saline with Tween-80.
Where [7] appears, read: endpoint: mean survival time, dose: 200.0 mg/kg/injection, schedule: Q01DX009 (ip), vehicle: saline with Tween-80.
[8] abbreviates: endpoint: mean survival time, dose: 200.0 mg/kg/injection, schedule: Q04DX003 (ip), vehicle: saline with Tween-80.
[9] abbreviates: endpoint: mean survival time, dose: 400.0 mg/kg/injection, schedule: Q01DX001 (ip), vehicle: saline with Tween-80.
Where [10] appears, read: endpoint: mean survival time, dose: 400.0 mg/kg/injection, schedule: Q01DX009 (ip), vehicle: saline with Tween-80.
The mark [11] stands for this setting: endpoint: mean survival time, dose: 400.0 mg/kg/injection, schedule: Q04DX003 (ip), vehicle: saline with Tween-80.
Where [12] appears, read: endpoint: mean survival time, dose: 100.0 mg/kg/injection, schedule: Q01DX009 (ip), vehicle: saline.
Setting [13] is: endpoint: mean survival time, dose: 200.0 mg/kg/injection, schedule: Q01DX009 (ip), vehicle: saline.
The mark [14] stands for this setting: endpoint: mean survival time, dose: 100.0 mg/kg/injection, schedule: Q04DX003 (ip), vehicle: saline.
Setting [15] is: endpoint: mean survival time, dose: 200.0 mg/kg/injection, schedule: Q04DX003 (ip), vehicle: saline.

Each structure is given as a SMILES string. “And” between values parts separate entries of the source, which are not always exact repeats. Identical values can stand only once. Toxic doses and inconclusive results are not listed.

In the case of `CCCCNC(=S)N/N=C/c1ccccn1`, the T/C is 98 % of control under setting [1] and 109 % of control under setting [2].
As to `Cc1cc(O)c(C(C)C)cc1N=O`, the T/C runs as follows: under setting [3], 96 % of control; under setting [4], 94 % of control; under setting [5], 103 % of control; under setting [6], 94 % of control; under setting [7], 88 % of control; under setting [8], 100 % of control. For the same compound, the T/C was 89 % of control under setting [9], 87 % of control under setting [10] and 106 % of control under setting [11].
For the compound `Nc1ccc(CCCCNC(=O)c2ccccc2)cc1`, the T/C under setting [5] is 93 % of control, the T/C under setting [8] is 96 % of control and the T/C under setting [11] is 90 % of control.
For the compound `COc1ccc(C=NC2CC(C)CCC2C)c(OC)c1` (stereo not drawn), the T/C under setting [4] was 86 % of control; the T/C under setting [5] is 91 % of control; the T/C under setting [7] was 89 % of control; the T/C under setting [8] is 95 % of control; the T/C under setting [10] was 93 % of control; the T/C under setting [11] is 95 % of control.
In the case of `COc1ccc(/C=N/NC(=O)CNC(=O)c2ccccc2)cc1`, the T/C was 92 % of control under setting [4] and 88 % of control under setting [10].
For the compound `C1CN(CC2COC(CN3CCOCC3)CO2)CCO1` (stereo not drawn), the T/C is 102 % of control under setting [12]; 102 % of control under setting [13]; 104 % of control (endpoint: mean survival time, dose: 400.0 mg/kg/injection, schedule: Q01DX009 (ip), vehicle: saline).
Regarding `CC(C)(C)NSc1nc2ccccc2s1`, the T/C by setting is: under setting [5], 96 % of control; under setting [8], 96 % of control.
Consider `ON=C(CCl)CCl`, for which the T/C by setting is: (endpoint: mean survival time, dose: 1.56 mg/kg/injection, schedule: Q01DX009 (ip), vehicle: saline) 96 % of control; (endpoint: mean survival time, dose: 3.12 mg/kg/injection, schedule: Q01DX009 (ip), vehicle: saline) 96 % of control; (endpoint: mean survival time, dose: 6.25 mg/kg/injection, schedule: Q01DX009 (ip), vehicle: saline) 93 % of control.
As for `Cc1nc2ccccc2c(=O)n1-c1ccccc1Cl`, the T/C runs as follows: under setting [4], 100 % of control; under setting [5], 100 % of control; under setting [7], 105 % of control; under setting [8], 102 % of control; under setting [10], 117 % of control; under setting [11], 112 % of control.
`CN(Cc1ccccc1)/N=N/c1nc[nH]c1C(N)=O`: the T/C (endpoint: mean survival time, dose: 4.0 mg/kg/injection, schedule: Q01DX009 (ip), vehicle: Klucel (hydroxypropylcellulose) (HPC)) is 98 % of control; the T/C (endpoint: mean survival time, dose: 8.0 mg/kg/injection, schedule: Q01DX009 (ip), vehicle: Klucel (hydroxypropylcellulose) (HPC)) was 98 % of control; the T/C (endpoint: mean survival time, dose: 16.1 mg/kg/injection, schedule: Q01DX009 (ip), vehicle: Klucel (hydroxypropylcellulose) (HPC)) is 102 % of control; the T/C (endpoint: mean survival time, dose: 32.2 mg/kg/injection, schedule: Q01DX009 (ip), vehicle: Klucel (hydroxypropylcellulose) (HPC)) is 106 % of control; the T/C (endpoint: mean survival time, dose: 129.0 mg/kg/injection, schedule: Q01DX009 (ip), vehicle: Klucel (hydroxypropylcellulose) (HPC)) was 95 % of control; the T/C (endpoint: mean survival time, dose: 258.0 mg/kg/injection, schedule: Q01DX009 (ip), vehicle: Klucel (hydroxypropylcellulose) (HPC)) was 70 % of control. The T/C runs as follows: (endpoint: median survival time, dose: 8.0 mg/kg/injection, schedule: Q03HX016 (ip), vehicle: saline with Tween-80) 106 % of control; (endpoint: median survival time, dose: 8.0 mg/kg/injection, schedule: Q03HX024 (ip), vehicle: saline with Tween-80) 115 % of control; (endpoint: median survival time, dose: 16.0 mg/kg/injection, schedule: Q03HX016 (ip), vehicle: saline with Tween-80) 112 % of control; (endpoint: median survival time, dose: 16.0 mg/kg/injection, schedule: Q03HX024 (ip), vehicle: saline with Tween-80) 124 % of control; (endpoint: median survival time, dose: 32.0 mg/kg/injection, schedule: Q03HX016 (ip), vehicle: saline with Tween-80) 123 % of control; (endpoint: median survival time, dose: 64.0 mg/kg/injection, schedule: Q04DX003 (ip), vehicle: saline with Tween-80) 116 % of control. For the same compound, the T/C is 105 % of control (endpoint: median survival time, dose: 64.0 mg/kg/injection, schedule: Q08DX002 (ip), vehicle: saline with Tween-80); 123 % of control (endpoint: median survival time, dose: 128.0 mg/kg/injection, schedule: Q04DX003 (ip), vehicle: saline with Tween-80); 112 % of control (endpoint: median survival time, dose: 128.0 mg/kg/injection, schedule: Q08DX002 (ip), vehicle: saline with Tween-80); 120 % of control (endpoint: median survival time, dose: 256.0 mg/kg/injection, schedule: Q01DX009 (ip), vehicle: saline with Tween-80); 112 % of control (endpoint: median survival time, dose: 256.0 mg/kg/injection, schedule: Q08DX002 (ip), vehicle: saline with Tween-80); 156 % of control (endpoint: median survival time, dose: 512.0 mg/kg/injection, schedule: Q08DX002 (ip), vehicle: saline with Tween-80).
Regarding `CCc1cc[c]([Sb](=[O])([OH])[OH])cc1`, the T/C is, setting by setting: (endpoint: mean survival time, dose: 50.0 mg/kg/injection, schedule: Q04DX003 (ip), vehicle: saline) 89 % of control; under setting [14], 101 % of control; under setting [15], 101 % of control.
On to `Nc1nc(=O)n(C2OC(CO)C(O)C2Cl)cc1I` (stereo not drawn), for which the T/C by setting is: (endpoint: median survival time, dose: 12.5 mg/kg/injection, schedule: Q01DX005 (ip), vehicle: saline with Tween-80) 97 % of control; (endpoint: median survival time, dose: 25.0 mg/kg/injection, schedule: Q01DX005 (ip), vehicle: saline with Tween-80) 112 % of control; (endpoint: median survival time, dose: 50.0 mg/kg/injection, schedule: Q01DX005 (ip), vehicle: saline with Tween-80) 104 % of control; (endpoint: median survival time, dose: 100.0 mg/kg/injection, schedule: Q01DX005 (ip), vehicle: saline with Tween-80) 107 % of control; (endpoint: median survival time, dose: 200.0 mg/kg/injection, schedule: Q01DX005 (ip), vehicle: saline with Tween-80) 104 % of control.
Take `Oc1ccccc1C=NC1CCCCC1N=Cc1ccccc1O.[Cu]` (stereo not drawn): the T/C under setting [1] is 88 % of control; the T/C under setting [2] was 88 % of control; the T/C (endpoint: mean survival time, dose: 400.0 mg/kg/injection, schedule: Q04DX002 (ip), vehicle: saline with Tween-80) was 91 % of control.
For the compound `CC(C)(CCCO)c1cccc(Cl)c1`, the T/C is 104 % of control (endpoint: mean survival time, dose: 50.0 mg/kg/injection, schedule: Q01DX009 (ip), vehicle: saline with Tween-80); 101 % of control under setting [4]; 104 % of control under setting [7].
On to `CCOC(=O)C(Br)C(Br)c1ccccc1` (stereo not drawn), for which the T/C (endpoint: mean survival time, dose: 50.0 mg/kg/injection, schedule: Q01DX009 (ip), vehicle: saline) was 108 % of control; the T/C under setting [12] is 103 % of control; the T/C under setting [13] is 103 % of control.
Turning to `OCC1OC(OC2C(CO)OC(Sc3ccccc3)C(O)C2O)C(O)C(O)C1O` (stereo not drawn), the T/C is, setting by setting: under setting [5], 97 % of control; under setting [14], 103 % of control; under setting [8], 95 % of control; under setting [15], 103 % of control; under setting [11], 97 % of control; (endpoint: mean survival time, dose: 400.0 mg/kg/injection, schedule: Q04DX003 (ip), vehicle: saline) 95 % of control.
As for `O=C1OC(=O)c2ccccc21`, the T/C is, setting by setting: (endpoint: mean survival time, dose: 25.0 mg/kg/injection, schedule: Q01DX009 (ip), vehicle: Klucel (hydroxypropylcellulose) (HPC)) 91 % of control; (endpoint: mean survival time, dose: 50.0 mg/kg/injection, schedule: Q01DX009 (ip), vehicle: Klucel (hydroxypropylcellulose) (HPC)) 95 % of control; (endpoint: mean survival time, dose: 100.0 mg/kg/injection, schedule: Q01DX009 (ip), vehicle: Klucel (hydroxypropylcellulose) (HPC)) 95 % of control.
As to `CC(=O)c1cccc(NS(=O)(=O)c2ccc(C)cc2)c1`, the T/C under setting [5] was 97 % of control, the T/C under setting [8] is 99 % of control and the T/C under setting [11] is 99 % of control.
`O=C(COc1ccccc1)NC(=S)Nc1nccs1`: the T/C by setting is: (endpoint: mean survival time, dose: 25.0 mg/kg/injection, schedule: Q04DX003 (ip), vehicle: saline with Tween-80) 87 % of control; (endpoint: mean survival time, dose: 50.0 mg/kg/injection, schedule: Q04DX003 (ip), vehicle: saline with Tween-80) 88 % of control and 103 % of control; under setting [3], 97 % of control; under setting [4], 93 % of control and 102 % of control; under setting [1], 98 % of control; under setting [5], 88 % of control and 97 % of control. Moreover, the T/C reads like this: under setting [6], 95 % of control; under setting [7], 93 % of control and 104 % of control; under setting [2], 102 % of control; under setting [8], 101 % of control and 108 % of control; under setting [9], 107 % of control; under setting [10], 111 % of control.
Turning to `CCCCN=[N+]=[N-]`, the T/C (endpoint: mean survival time, dose: 25.0 mg/kg/injection, schedule: Q01DX009 (ip), vehicle: water) was 94 % of control; the T/C (endpoint: mean survival time, dose: 100.0 mg/kg/injection, schedule: Q01DX009 (ip), vehicle: water) is 96 % of control; the T/C (endpoint: mean survival time, dose: 200.0 mg/kg/injection, schedule: Q01DX009 (ip), vehicle: water) was 91 % of control.
